Test results as given in PubChem BioAssay AID248 (DTP/NCI, 2004).
Inconclusive results and toxic doses are left out. Cut-off read from the data, not from the text of the source: active = T/C of 150% or more; inactive = T/C below 125%.

Tested on: L1210 leukemia ip in BDF1 mice, survival T/C
Test: NCI In Vivo Anticancer Drug Screen. Data for tumor model L1210 Leukemia (intraperitoneal) in B6D2F1 (BDF1) mice
Details: endpoint: mean survival time, schedule: Q01DX009 (ip), vehicle: saline with Tween-80, higher = longer survival
Method in brief: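 Tumor was transplanted into mice, which were then dosed with test compound or vehicle alone. Survival was recorded for each group, and the treated figure was expressed relative to the control figure.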

Measured: T/C

O=C(CNC(=O)Nc1cccc(Cl)c1Cl)N/N=C/c1cccc([N+](=O)[O-])c1
inactive: dose: 50.0 mg/kg/injection 90 % of control | dose: 100.0 mg/kg/injection 96 % of control | dose: 200.0 mg/kg/injection 90 % of control
